These results are taken from US7875715B2, “Compounds for the treatment of multi-drug resistant bacterial infections” (AstraZeneca AB, priority 2005, dated 2011).

In brackets after ≈: the same amount, converted by molar mass. Structures can show the parent of a compound that is named as a salt. Where two headings read alike, the source gives them in different places.

The target in data set [1] is DNA gyrase (Escherichia coli, UniProt P0AES4+P0AES6). In words: Supercoiling assay: inhibition of Escherichia coli DNA supercoiling activity. It is filed as biochemical. The protocol: Compounds were tested for inhibition of Escherichia coli DNA supercoiling activity as follows. Assays were performed in polypropylene multiwell plates in 50 μl reactions containing 35 mM Tris-HCl (pH 7.5), 24 mM KCl, 4 mM MgCl2, 2 mM dithiothreitol, 1.8 mM spermidine, 5% (v/v) glycerol, 200 nM bovine serum albumin, 1.25% (v/v) DMSO, 3 mM ATP, 10 ng/ml relaxed pBR322 plasmid, 0.6 nM DNA gyrase, and test compound. Reactions were quenched after 1 hour by the addition of 10 μl of 30% (w/v) Ficoll-400, 10 mM EDTA, and 5% sodium dodecyl sulfate. Twenty-five μl of each sample was loaded onto a 0.8% (w/v) agarose gel and electrophoresed. The gel and gel buffer contained 1×TBE buffer (89 mM Tris base, 89 mM boric acid, and 2 mM EDTA at pH 8.3). After electrophoresis for 3 hours at 70V, the gel was stained with ethidium bromide and visualized by excitation with ultraviolet light. The fluorescence intensity of the most supercoiled plasmid band was used to measure gyrase activity. Compound potency was based IC50 measurements determined from reactions performed with eight 2-fold serial dilutions of each compound and a control without compound.
Sequence of DNA gyrase (P0AES4 whole entry, one chain of several): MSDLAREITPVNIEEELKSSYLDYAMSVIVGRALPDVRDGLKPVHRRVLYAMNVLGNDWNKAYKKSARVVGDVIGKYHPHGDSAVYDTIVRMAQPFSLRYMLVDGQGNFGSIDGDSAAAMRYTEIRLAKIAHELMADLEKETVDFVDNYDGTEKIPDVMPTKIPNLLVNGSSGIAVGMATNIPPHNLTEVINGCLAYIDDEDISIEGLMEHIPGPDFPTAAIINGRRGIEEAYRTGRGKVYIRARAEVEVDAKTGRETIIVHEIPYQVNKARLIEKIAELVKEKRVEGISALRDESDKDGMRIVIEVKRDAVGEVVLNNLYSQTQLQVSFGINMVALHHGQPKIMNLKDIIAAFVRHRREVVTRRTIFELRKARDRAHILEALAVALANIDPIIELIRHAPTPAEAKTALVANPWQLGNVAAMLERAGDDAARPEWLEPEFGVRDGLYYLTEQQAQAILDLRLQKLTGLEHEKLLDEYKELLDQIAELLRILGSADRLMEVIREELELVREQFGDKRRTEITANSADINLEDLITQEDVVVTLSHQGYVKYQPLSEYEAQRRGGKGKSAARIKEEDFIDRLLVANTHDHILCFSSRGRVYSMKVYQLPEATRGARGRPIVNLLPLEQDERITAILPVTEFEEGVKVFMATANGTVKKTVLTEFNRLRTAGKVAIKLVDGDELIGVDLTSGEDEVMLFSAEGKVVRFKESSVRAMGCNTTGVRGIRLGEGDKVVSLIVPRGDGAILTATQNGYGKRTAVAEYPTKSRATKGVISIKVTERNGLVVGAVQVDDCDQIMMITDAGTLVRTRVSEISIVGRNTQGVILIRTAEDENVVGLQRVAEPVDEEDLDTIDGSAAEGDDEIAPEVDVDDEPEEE

The test system of data set [2] is Escherichia coli. Briefly: Bacterial susceptibility testing in liquid media (MIC), E. coli. It is filed as cell-based. As to conditions: lowest concentration reducing growth by 80% or more, 37° C., 24 hours. The protocol:
(§1) Compounds were tested for antimicrobial activity by susceptibility testing in liquid media in a 96 well format. Compounds were dissolved in dimethylsulfoxide and tested in 10 doubling dilutions in the susceptibility assays. The organisms used in the assay were grown overnight on suitable agar media and then suspended in a liquid medium appropriate for the growth of the organism. The suspension was a 0.5 McFarland and a further 1 in 10 dilution was made into the same liquid medium to prepare the final organism suspension in 100 μL. Plates were incubated under appropriate conditions at 37° C. for 24 hours prior to reading. The Minimum Inhibitory Concentration (MIC) was determined as the lowest drug concentration able to reduce growth by 80% or more.
(§2) Compounds were evaluated against a panel of Gram-positive species, including Staphylococcus aureus, Streptococcus pneumoniae, Streptococcus pyogenes, and Enterococcus faecium. In addition, compounds were evaluated against a panel of Gram-negative species including Haemophilus influenzae, Escherichia coli and Moraxella catarrhalis.

For data set [3], the target named is GyrB ATPase (Escherichia coli, UniProt P0AES4+P0AES6). Briefly: ATPase assay: inhibition of GyrB ATPase activity, ammonium molybdate/malachite green phosphate detection. Format: biochemical, E. coli. The protocol: Compounds were tested for inhibition of GyrB ATPase activity using an ammonium molybdate/malachite green-based phosphate detection assay (Lanzetta, P. A., L. J. Alvarez, P. S. Reinach, and O. A. Candia, 1979, 100: 95-97). Assays were performed in multiwell plates in 100 μl reactions containing: 50 mM TRIS buffer pH 7.5, 75 mM ammonium acetate, 5.5 mM magnesium chloride, 0.5 mM ethylenediaminetetraacetic acid, 5% glycerol, 1 mM 1,4-dithio-DL-threitol, 200 nM bovine serum albumin, 16 μg/ml sheared salmon sperm DNA, 4 nM E. coli GyrA, 4 nM E. coli GyrB, 250 μM ATP, and compound in dimethylsulfoxide. Reactions were quenched with 150 μL of ammonium molybdate/malachite green detection reagent containing 1.2 mM malachite green hydrochloride, 8.5 mM ammonium molybdate tetrahydrate, and 1 M hydrochloric acid. Plates were read in an absorbance plate reader at 625 nm and percent inhibition values were calculated using dimethylsulfoxide (2%)-containing reactions as 0% inhibition and novobiocin-containing (2 μM) reactions as 100% inhibition controls. Compound potency was based on IC50 measurements determined from reactions performed in the presence of 10 different compound concentrations.
Sequence of GyrB ATPase (P0AES4 whole entry, one chain of several): as above

Data set [4] has as its system Streptococcus pneumoniae. In words: Bacterial susceptibility testing in liquid media (MIC), S. pneumo. The following applies: MIC: lowest concentration reducing growth by 80% or more; 37° C., 24 hours. It is filed as cell-based. The protocol: as §1, §2
The mark [5] stands for this setting: 4 nM E. coli GyrA, 4 nM E. coli GyrB, 250 μM ATP, read-out: gyrase ATPase (converted).

In general, melting point refers to the temperature of the solid-liquid transition. As for `O=c1ccc2ccc(F)cc2n1CCN1CCC(NCc2cc3c(cn2)OCCO3)CC1` (as salt: HCl) [Example 10, 1-(2-{4-[(2,3-Dihydro[1,4]dioxino[2,3-c]pyridin-7-ylmethyl)amino]piperidin-1-yl}ethyl)-7-fluoroquinolin-2(1H)-one], the melting point is > 275 °C (dec.).

Take `COc1ccc2c(=O)ccn(CCN3CCC(NCc4cc5c(cn4)OCCO5)CC3)c2c1` (as salt: hydrochloride) [Example 2, 1-(2-{4-[(2,3-Dihydro[1,4]dioxino[2,3-c]pyridin-7-ylmethyl)amino]piperidin-1-yl}ethyl)-7-methoxyquinolin-4(1H)-one]: the melting point is 260 °C.

`O=C(O)[C@H]1CN(CCn2c(=O)ccc3c(F)cc(F)cc32)CC[C@H]1NC/C=C/c1cc(F)ccc1F` (as salt: hydrochloride) [Example 13, (3S,4R)-1-[2-(5,7-Difluoro-2-oxoquinolin-1(2H)-yl)ethyl]-4-{[(2E)-3-(2,5-difluorophenyl)prop-2-en-1-yl]amino}piperidine-3-carboxylic acid] showed a melting point of 150 to 180 °C.

`O=C(O)[C@@H]1CN(CCn2c(=O)ccc3c(F)cc(F)cc32)CC[C@H]1NCc1cc2c(cn1)OCCO2` (as salt: hydrochloride) [Example 16, (3R,4R)-1-[2-(5,7-Difluoro-2-oxoquinolin-1(2H)-yl)ethyl]-4-[(2,3-dihydro[1,4]dioxino[2,3-c]pyridin-7-ylmethyl)amino]piperidine-3-carboxylic acid] registered a melting point greater than 190 °C.

`O=C(O)[C@@H]1CN(CCn2c(=O)ccc3c(F)cc(F)cc32)CC[C@H]1NC/C=C/c1cc(F)ccc1F` (as salt: hydrochloride) [Example 17, (3R,4R)-1-[2-(5,7-Difluoro-2-oxoquinolin-1(2H)-yl)ethyl]-4-{[(2E)-3-(2,5-difluorophenyl)prop-2-en-1-yl]amino}piperidine-3-carboxylic acid] gave a melting point greater than 205 °C.

`O=C1COc2ccc(CNC3CCN(CCn4c(=O)ccc5ccc(F)c(F)c54)CC3)nc2N1` (as salt: salt) [Example 7, 6-[({1-[2-(7,8-Difluoro-2-oxoquinolin-1(2H)-yl)ethyl]piperidin-4-yl}amino)methyl]-2H-pyrido[3,2-b][1,4]oxazin-3(4H)-one] registered a melting point of 158 to 170 °C.

Molecule `O=C1COc2ccc(CNC3CCN(CCn4c(=O)ccc5c(F)cc(F)cc54)CC3)nc2N1` (as salt: salt) [Example 8, 6-[({1-[2-(5,7-Difluoro-2-oxoquinolin-1(2H)-yl)ethyl]piperidin-4-yl}amino)methyl]-2H-pyrido[3,2-b][1,4]oxazin-3(4H)-one] yielded a melting point of 170 to 180 °C.

The molecule `O=C1COc2ccc(CNC3CCN(CCn4c(=O)ccc5ccc(F)cc54)CC3)nc2N1` (as salt: salt) [Example 9, 6-[({1-[2-(7-Fluoro-2-oxoquinolin-1(2H)-yl)ethyl]piperidin-4-yl}amino)methyl]-2H-pyrido[3,2-b][1,4]oxazin-3(4H)-one] showed a melting point of 150 to 155 °C.

In turn, `COC(=O)c1cc2ccc(OC)cc2n1CCN1CCC(NCc2cc3c(cn2)OCCO3)CC1` [Example 3, Methyl 1-(2-{4-[(2,3-dihydro[1,4]dioxino[2,3-c]pyridin-7-ylmethyl)amino]piperidin-1-yl}ethyl)-6-methoxy-1H-indole-2-carboxylate] registered a melting point of 130 °C.

The MIC is the smallest concentration in the dilution series that meets the test's criterion for growth inhibition. As for `N#Cc1ccc2ccc(=O)n(CCN3CCC(NCc4cc5c(cn4)OCCO5)CC3)c2c1` [Example 5, 1-(2-{4-[(2,3-Dihydro[1,4]dioxino[2,3-c]pyridin-7-ylmethyl)amino]piperidin-1-yl}ethyl)-2-oxo-1,2-dihydroquinoline-7-carbonitrile], the IC50 in data set [1] (0.6 nM DNA gyrase, relaxed pBR322 plasmid, 1 hour, read-out: gyrase supercoiling (converted)) is 114 nM; in data set [3] (setting [5]), 157 nM. In addition, the MIC in data set [2] was determined as 0.5 µg/mL (≈ 1.12 µM). This molecule yielded a S. pneumo in data set [4] of 0.12 microgram/ml.

Molecule `N#Cc1ccc2ccc(=O)n(CCN3CCC(NCc4ccc5c(n4)NC(=O)CO5)CC3)c2c1` [Example 6, 2-Oxo-1-[2-(4-{[(3-oxo-3,4-dihydro-2H-pyrido[3,2-b][1,4]oxazin-6-yl)methyl]amino}piperidin-1-yl)ethyl]-1,2-dihydroquinoline-7-carbonitrile] returned a melting point of 212 °C.

Regarding `O=C1COc2ccc(F)cc2N1CCN1CCC(NCc2cc3c(cn2)OCCO3)CC1` [Example 26, 4-(2-{4-[(2,3-Dihydro[1,4]dioxino[2,3-c]pyridin-7-ylmethyl)amino]piperidin-1-yl}ethyl)-6-fluoro-2H-1,4-benzoxazin-3(4H)-one], in data set [1], the IC50 was 949 nM. The molecule also showed an MIC in data set [2] of 1 µg/mL (≈ 2.26 µM). The molecule further yielded a S. pneumo in data set [4] of 0.25 microgram/ml.

For the molecule `N#Cc1ccc2c(c1)N(CCN1CCC(NC/C=C/c3cc(F)ccc3F)CC1)C(=O)CO2` [Example 37, 4-[2-(4-{[(2E)-3-(2,5-Difluorophenyl)prop-2-en-1-yl]amino}piperidin-1-yl)ethyl]-3-oxo-3,4-dihydro-2H-1,4-benzoxazine-6-carbonitrile], in data set [2], the MIC stood at 0.25 µg/mL (≈ 0.552 µM). Besides, the IC50 in data set [3] was 17.7 nM. For the same molecule, the S. pneumo in data set [4] is 0.06 microgram/ml.

`O=C1COc2ccccc2N1CCN1CCC(NCc2cc3c(cn2)OCCO3)CC1` [Example 49, 4-(2-{4-[(2,3-Dihydro[1,4]dioxino[2,3-c]pyridin-7-ylmethyl)amino]piperidin-1-yl}ethyl)-2H-1,4-benzoxazin-3(4H)-one] gave an IC50 in data set [1] of 7070 nM. The molecule also yielded an MIC in data set [2] of 8 µg/mL (≈ 18.8 µM). The molecule further gave a S. pneumo in data set [4] of 4 microgram/ml.

In data set [2], `Cn1c(=O)c2ccc(F)cc2n(CCN2CCC(NCc3ccc4c(n3)NC(=O)CO4)CC2)c1=O` [Example 66, 7-Fluoro-3-methyl-1-[2-(4-{[(3-oxo-3,4-dihydro-2H-pyrido[3,2-b][1,4]oxazin-6-yl)methyl]amino}piperidin-1-yl)ethyl]quinazoline-2,4(1H,3H)-dione] returned a minimum inhibitory concentration (MIC) of 4 µg/mL (≈ 8.29 µM). For the same molecule, the IC50 in data set [3] (setting [5]) was 622 nM. This molecule also registered a S. pneumo in data set [4] of 8 microgram/ml.
